Test system: 292921-168-R-J2-PDC KRAS tumor spheroid viability
Assay: Anticancer human tumor 292921-168-R-J2-PDC patient-derived pancreatic carcinoma cell line growth inhibition [KRAS2]
Conditions: spheroids with HUVEC and MSC; for IC50: curve of first compound; for viability, T/C: stronger effect = lower value
Procedure, shortened: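 KRAS-mutant tumor cells were grown as spheroids with HUVEC endothelial cells and human MSCs as stroma. Targeted agents were tested alone and with KRAS pathway inhibitors. Doses started at or near clinical Cmax, or 10 microM, descending half-log.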

[1] = second compound 0.1 µM, first compound 0.0316 µM
[2] = second compound 0.1 µM, first compound 0.1 µM
[3] = second compound 0.1 µM, first compound 0.316 µM
[4] = second compound 0.1 µM, first compound 1 µM
[5] = second compound 0.1 µM, first compound 3.16 µM
[6] = second compound 0.1 µM, first compound 10 µM
[7] = second compound 0.316 µM, first compound 0.0316 µM
[8] = second compound 0.316 µM, first compound 0.1 µM
[9] = second compound 0.316 µM, first compound 0.316 µM
[10] = second compound 0.316 µM, first compound 1 µM
[11] = second compound 0.316 µM, first compound 3.16 µM
[12] = second compound 0.316 µM, first compound 10 µM
[13] = second compound 1 µM, first compound 0.0316 µM
[14] = second compound 1 µM, first compound 0.1 µM
[15] = second compound 1 µM, first compound 0.316 µM
[16] = second compound 1 µM, first compound 1 µM
[17] = second compound 1 µM, first compound 3.16 µM
[18] = second compound 1 µM, first compound 10 µM
[19] = second compound 3.16 µM, first compound 0.0316 µM
[20] = second compound 3.16 µM, first compound 0.1 µM
[21] = second compound 3.16 µM, first compound 0.316 µM
[22] = second compound 3.16 µM, first compound 1 µM
[23] = second compound 3.16 µM, first compound 3.16 µM
[24] = second compound 3.16 µM, first compound 10 µM
[25] = second compound 10 µM, first compound 0.0316 µM
[26] = second compound 10 µM, first compound 0.1 µM
[27] = second compound 10 µM, first compound 0.316 µM
[28] = second compound 10 µM, first compound 1 µM
[29] = second compound 10 µM, first compound 3.16 µM
[30] = second compound 10 µM, first compound 10 µM
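Note: drug exposure lasted seven days after spheroids formed for three days.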
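Throughout, for viability, T/C: percent of DMSO vehicle control viability which is 100%.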

COc1cc2nccc(Oc3ccc(NC(=O)C4(C(=O)Nc5ccc(F)cc5)CC4)cc3)c2cc1OC + CNCc1ccccc1-c1csc(C(C)Nc2nc(C)nc3cc(OC)c(OC)cc23)c1
IC50 (second compound 0.1 µM): 1270 nM
IC50 (second compound 0.316 µM): 1050 nM
IC50 (second compound 1 µM): 401 nM
IC50 (second compound 3.16 µM): < 31.6 nM
IC50 (second compound 10 µM): < 31.6 nM
viability, T/C [1]: 89.2%
viability, T/C [2]: 94.5%
viability, T/C [3]: 82.5%
viability, T/C [4]: 57.1%
viability, T/C [5]: 25.1%
viability, T/C [6]: 18.1%
viability, T/C [7]: 89.4%
viability, T/C [8]: 90.8%
viability, T/C [9]: 73.4%
viability, T/C [10]: 55.3%
viability, T/C [11]: 19.8%
viability, T/C [12]: 17%
viability, T/C [13]: 69.1%
viability, T/C [14]: 65.5%
viability, T/C [15]: 50.1%
viability, T/C [16]: 40.2%
viability, T/C [17]: 15.1%
viability, T/C [18]: 3.12%
viability, T/C [19]: 0.1%
viability, T/C [20]: 0.09%
viability, T/C [21]: 0.13%
viability, T/C [22]: 0.06%
viability, T/C [23]: 0.05%
viability, T/C [24]: 0.1%
viability, T/C [25]: 0.08%
viability, T/C [26]: 0.13%
viability, T/C [27]: 0.21%
viability, T/C [28]: 0.08%
viability, T/C [29]: 0.42%
viability, T/C [30]: 0.25%

O=C(c1cc(Cc2n[nH]c(=O)c3ccccc23)ccc1F)N1CCN(C(=O)C2CC2)CC1 + C=CC(=O)N1CCN(c2nc(OCC3CCCN3C)nc3c2CCN(c2cccc4cccc(C)c24)C3)CC1CC#N
IC50 (second compound 0.0316 µM): 5670 nM
IC50 (second compound 0.1 µM): 6110 nM
IC50 (second compound 0.316 µM): 3560 nM
IC50 (second compound 1 µM): < 31.6 nM
IC50 (second compound 3.16 µM): < 31.6 nM
viability, T/C (second compound 0.0316 µM, first compound 0.0316 µM): 102%
viability, T/C (second compound 0.0316 µM, first compound 0.1 µM): 101%
viability, T/C (second compound 0.0316 µM, first compound 0.316 µM): 102%
viability, T/C (second compound 0.0316 µM, first compound 1 µM): 85.1%
viability, T/C (second compound 0.0316 µM, first compound 3.16 µM): 62%
viability, T/C (second compound 0.0316 µM, first compound 10 µM): 38.8%
viability, T/C [1]: 88.3%
viability, T/C [2]: 68.2%
viability, T/C [3]: 84.5%
viability, T/C [4]: 75.6%
viability, T/C [5]: 68.5%
viability, T/C [6]: 36.3%
viability, T/C [7]: 50.5%
viability, T/C [8]: 56.1%
viability, T/C [9]: 55.2%
viability, T/C [10]: 62.7%
viability, T/C [11]: 50.2%
viability, T/C [12]: 30.8%
viability, T/C [13]: 42.9%
viability, T/C [14]: 43.5%
viability, T/C [15]: 38.1%
viability, T/C [16]: 34.3%
viability, T/C [17]: 43.3%
viability, T/C [18]: 19.7%
viability, T/C [19]: 0.21%
viability, T/C [20]: 0.17%
viability, T/C [21]: 0.19%
viability, T/C [22]: 0.49%
viability, T/C [23]: 0.32%
viability, T/C [24]: 0.25%

CN(C)C/C=C/C(=O)Nc1cc2c(Nc3ccc(F)c(Cl)c3)ncnc2cc1O[C@H]1CCOC1 + C=CC(=O)N1CCN(c2nc(=O)n(-c3c(C)ccnc3C(C)C)c3nc(-c4c(O)cccc4F)c(F)cc23)C(C)C1
IC50 (second compound 0.1 µM): > 100 nM
IC50 (second compound 0.316 µM): > 100 nM
IC50 (second compound 1 µM): > 100 nM
IC50 (second compound 3.16 µM): > 100 nM
IC50 (second compound 10 µM): < 0.316 nM
viability, T/C (second compound 0.1 µM, first compound 0.000316 µM): 119%
viability, T/C (second compound 0.1 µM, first compound 0.001 µM): 110%
viability, T/C (second compound 0.1 µM, first compound 0.00316 µM): 94%
viability, T/C (second compound 0.1 µM, first compound 0.01 µM): 86.2%
viability, T/C [1]: 95.3%
viability, T/C [2]: 76.5%
viability, T/C (second compound 0.316 µM, first compound 0.000316 µM): 118%
viability, T/C (second compound 0.316 µM, first compound 0.001 µM): 114%
viability, T/C (second compound 0.316 µM, first compound 0.00316 µM): 104%
viability, T/C (second compound 0.316 µM, first compound 0.01 µM): 104%
viability, T/C [7]: 96.4%
viability, T/C [8]: 89.4%
viability, T/C (second compound 1 µM, first compound 0.000316 µM): 117%
viability, T/C (second compound 1 µM, first compound 0.001 µM): 107%
viability, T/C (second compound 1 µM, first compound 0.00316 µM): 106%
viability, T/C (second compound 1 µM, first compound 0.01 µM): 90.7%
viability, T/C [13]: 101%
viability, T/C [14]: 87.2%
viability, T/C (second compound 3.16 µM, first compound 0.000316 µM): 71.7%
viability, T/C (second compound 3.16 µM, first compound 0.001 µM): 67%
viability, T/C (second compound 3.16 µM, first compound 0.00316 µM): 66.6%
viability, T/C (second compound 3.16 µM, first compound 0.01 µM): 71.9%
viability, T/C [19]: 68.4%
viability, T/C [20]: 53.5%
viability, T/C (second compound 10 µM, first compound 0.000316 µM): 29.3%
viability, T/C (second compound 10 µM, first compound 0.001 µM): 24.5%
viability, T/C (second compound 10 µM, first compound 0.00316 µM): 22.8%
viability, T/C (second compound 10 µM, first compound 0.01 µM): 23%
viability, T/C [25]: 20.9%
viability, T/C [26]: 19.2%

CC1(C)CCC(CN2CCN(c3ccc(C(=O)NS(=O)(=O)c4ccc(NCC5CCOCC5)c([N+](=O)[O-])c4)c(Oc4cnc5[nH]ccc5c4)c3)CC2)=C(c2ccc(Cl)cc2)C1 + CC1OCC2(CCN(c3cnc(Sc4ccnc(N)c4Cl)c(N)n3)CC2)C1N
IC50 (second compound 0.1 µM): 1610 nM
IC50 (second compound 0.316 µM): 1430 nM
IC50 (second compound 1 µM): < 31.6 nM
IC50 (second compound 3.16 µM): < 31.6 nM
IC50 (second compound 10 µM): < 31.6 nM
viability, T/C [1]: 77.7%
viability, T/C [2]: 81.6%
viability, T/C [3]: 71.8%
viability, T/C [4]: 69.8%
viability, T/C [5]: 21.9%
viability, T/C [6]: 11.7%
viability, T/C [7]: 59.7%
viability, T/C [8]: 65.9%
viability, T/C [9]: 64.2%
viability, T/C [10]: 58.9%
viability, T/C [11]: 29.6%
viability, T/C [12]: 7.43%
viability, T/C [13]: 46.5%
viability, T/C [14]: 51.4%
viability, T/C [15]: 46.1%
viability, T/C [16]: 42.9%
viability, T/C [17]: 17.8%
viability, T/C [18]: 7.41%
viability, T/C [19]: 38.8%
viability, T/C [20]: 40.2%
viability, T/C [21]: 37.6%
viability, T/C [22]: 39%
viability, T/C [23]: 14.1%
viability, T/C [24]: 7.38%
viability, T/C [25]: 33.3%
viability, T/C [26]: 32.8%
viability, T/C [27]: 33.2%
viability, T/C [28]: 34.7%
viability, T/C [29]: 13.1%
viability, T/C [30]: 1.65%

— PubChem BioAssay AID1963870 (Molecular Pharmacology Branch, DTP, NCI, 2024)
